From patent US7635664B2, “Herbicidal substituted benzoylpyrazoles” (Bayer CropScience AG, priority 2001, dated 2009) come the findings set out here.

As usually defined, the chromatographic logP is lipophilicity estimated from chromatographic retention. The low end stands for lower lipophilicity, the high end for higher lipophilicity.

Test system in one data set: not listed separately
The data set can be described thus: logP determination by HPLC on reversed-phase column, acidic range. The class given is physicochemical. The following applies: HPLC reversed-phase column (C 18), 43° C., acidic range: 0.1% aqueous phosphoric acid, acetonitrile; marked a). The text has this:
(a) Mobile phases for the determination in the acidic range: 0.1% aqueous phosphoric acid, acetonitrile; linear gradient from 10% acetonitrile to 90% acetonitrile—the corresponding measurement results in Table 1 are marked ^a).
With `Cc1nn(C)c(O)c1C(=O)c1ccc(Cl)c(NC(=O)N2CCCO2)c1Cl` [Example 185], the logP result is reported as “(I-2) logP = 1.10^a)”.

Take `CCn1nc(C)c(C(=O)c2ccc(Cl)c(NC(=O)N3CCCO3)c2Cl)c1O` [Example 186]: the logP result is recorded as “(I-2) logP = 1.31^a)”.

Still in this data set, the particulars now being: marked a): acidic range, 0.1% aqueous phosphoric acid, acetonitrile gradient, 43° C.
As for `COC(=O)c1ccc(C(F)(F)F)cc1NC(=O)N1CCN(C)C1=O` [IIIa-10], the “logP a)” value is “logP = 2.76^a)”.

In the case of `COC(=O)c1ccc(Cl)c(NC(=O)N2CCN(C)CC2)c1Cl` [IIIa-8], the “logP a)” value is reported as “logP = 0.50^a)”.

Turning to `COC(=O)c1ccc(Cl)c(NC(=O)N2CCOCC2)c1Cl` [IIIa-6], the “logP a)” value was “logP = 1.34^a)”.

For `COC(=O)c1ccc(Cl)c(NC(=O)NN(C)C)c1Cl` [IIIa-7], the “logP a)” value was “logP = 1.64^a)”.

Turning to `COC(=O)c1ccc(C(F)(F)F)cc1NC(=O)N(C)OC` [IIIa-9], the “logP a)” value was “logP = 3.35^a)”.

Staying with this data set, now noted: marked a): acidic range, 0.1% aqueous phosphoric acid/acetonitrile gradient, reversed-phase C 18 HPLC, 43° C.
Consider `CCn1ncc(C(=O)c2ccc(Cl)c(NC(=O)N3CCCN(C4CCCCC4)C3=O)c2Cl)c1O` [Example 102], for which the logP result is listed as “(I-2) logP = 3.30^a)”.

For `Cc1nn(C)c(O)c1C(=O)c1ccc(Cl)c(NC(=O)N2CCCCO2)c1Cl` [Example 184], the logP entry is “(I-2) logP = 1.34^a)”.

Consider `CCn1ncc(C(=O)c2ccc(Cl)c(NC(=O)NN3CCOCC3)c2Cl)c1O` [Example 14], for which the logP result is listed as “(I-2) logP = 1.25^a)”.

As to `CCn1ncc(C(=O)c2ccc(C(F)(F)F)cc2N(C)C(=O)N2CCN(C)C2=O)c1O` [Example 103], the logP result is reported as “(I-1) logP = 1.78^a)”.

For the molecule `CCN1CCN(C(=O)Nc2c(Cl)ccc(C(=O)c3cnn(CC)c3O)c2Cl)C1=O` [Example 13], the logP entry was “(I-2) logP = 1.86^a)”.

As to `Cn1ncc(C(=O)c2ccc(Cl)c(NC(=O)NN3CCOCC3)c2Cl)c1O` [Example 15], the logP result is listed as “(I-2) logP = 1.03^a)”.

As for `CN1CCN(C(=O)Nc2c(Cl)ccc(C(=O)c3cnn(C)c3O)c2Cl)C1=O` [Example 4], the logP result is given as “(I-2) logP = 1.32^a)”.

Take `CCN1CCCN(C(=O)Nc2c(Cl)ccc(C(=O)c3cnn(CC)c3O)c2Cl)C1=O` [Example 18]: the logP entry is reported as “(I-2) logP = 2.11^a)”.

In the case of `CCn1ncc(C(=O)c2ccc(Cl)c(NC(=O)NCC3CCCO3)c2Cl)c1O` (stereo not drawn) [Example 105], the logP entry is on record as “(I-2) logP = 1.33^a)”.

Turning to `Cn1ncc(C(=O)c2ccc(Cl)c(NC(=O)NCC3CCCO3)c2Cl)c1O` (stereo not drawn) [Example 41], the logP result was “(I-2) logP = 1.10^a)”.

Turning to `CCn1ncc(C(=O)c2ccc(C(F)(F)F)cc2NC(=O)N2CCN(C)C2=O)c1O` [Example 11], the logP entry is given as “(I-1) logP = 2.42^a)”.

Regarding `Cn1ncc(C(=O)c2ccc(Cl)c(NC(=O)N3CCCO3)c2Cl)c1O` [Example 161], the logP entry is on record as “(I-2) logP = 1.11^a)”.

With `Cn1ncc(C(=O)c2ccc(Cl)c(NC(=O)N3CCCCO3)c2Cl)c1O` [Example 182], the logP result was “(I-2) logP = 1.36^a)”.

As for `Cn1ncc(C(=O)c2ccc(Cl)c(NC(=O)N3CCOCC3)c2Cl)c1O` [Example 10], the logP result is given as “(I-2) logP = 0.82^a)”.

As for `CCn1ncc(C(=O)c2ccc(Cl)c(NC(=O)C3=NOCC3)c2Cl)c1O` [Example 148], the logP entry is reported as “(I-2) logP = 1.45^a)”.

Regarding `CCn1ncc(C(=O)c2ccc(Cl)c(NC(=O)NC3CC3)c2Cl)c1O` [Example 104], the logP entry is on record as “(I-2) logP = 1.25^a)”.

Turning to `CCn1ncc(C(=O)c2ccc(Cl)c(N(C)C(=O)N3CCN(C)C3=O)c2Cl)c1O` [Example 171], the logP result is “(I-2) logP = 2.88^a)”.

`CCn1ncc(C(=O)c2ccc(Cl)c(NC(=O)NCC(OC)OC)c2Cl)c1O` [Example 180]: the logP result is “(I-2) logP = 1.13^a)”.

Regarding `CCn1ncc(C(=O)c2ccc(Cl)c(NC(=O)N3CCCCC3)c2Cl)c1O` [Example 106], the logP entry is “(I-2) logP = 1.75^a)”.

As to `Cn1ncc(C(=O)c2ccc(Cl)c(NC(=O)N3CCCC3)c2Cl)c1O` [Example 24], the logP entry is recorded as “(I-2) logP = 1.18^a)”.

Take `CCn1ncc(C(=O)c2ccc(Cl)c(NC(=O)N3CCCO3)c2Cl)c1O` [Example 162]: the logP result is recorded as “(I-2) logP = 1.38^a)”.

In the case of `CCONC(=O)Nc1c(Cl)ccc(C(=O)c2cnn(CC)c2O)c1Cl` [Example 128], the logP entry is “(I-2) logP = 1.33^a)”.

In the case of `CCn1ncc(C(=O)c2ccc(Cl)c(NC(=O)NOC)c2Cl)c1O` [Example 108], the logP entry is reported as “(I-2) logP = 1.06^a)”.

As to `CCn1ncc(C(=O)c2ccc(Cl)c(NC(=O)N=c3sccn3CC)c2Cl)c1O` [Example 179], the logP entry is “(I-2) logP = 1.72^a)”.

Take `Cn1ncc(C(=O)c2ccc(Cl)c(NC(=O)NN3CCCC3)c2Cl)c1O` [Example 16]: the logP entry was “(I-2) logP = 1.17^a)”.

With `CCN1CCN(C(=O)Nc2c(Cl)ccc(C(=O)c3cnn(C)c3O)c2Cl)C1=O` [Example 12], the logP entry is “(I-2) logP = 1.63^a)”.

On to `CCn1ncc(C(=O)c2ccc(Cl)c(NC(=O)N3CCCN(C(C)C)C3=O)c2Cl)c1O` [Example 101], for which the logP result is “(I-2) logP = 2.42^a)”.

Consider `Cn1ncc(C(=O)c2ccc(Cl)c(NC(=O)NC3CC3)c2Cl)c1O` [Example 21], for which the logP entry is given as “(I-2) logP = 0.99^a)”.

Consider `CCn1ncc(C(=O)c2ccc(NC(=O)N3CCN(C)C3=O)cc2OC)c1O` [Example 111], for which the logP entry was “(I-3) logP = 1.74^a)”.

With `CCn1ncc(C(=O)c2ccc(Cl)c(NC(=O)N=c3sccn3C)c2Cl)c1O` [Example 176], the logP result is “(I-2) logP = 1.39^a)”.

On to `CON(C)C(=O)Nc1cc(C(F)(F)F)ccc1C(=O)c1cnn(C)c1O` [Example 8], for which the logP entry is “(I-1) logP = 2.50^a)”.

Take `CCn1ncc(C(=O)c2ccc(Cl)c(NC(=O)c3ccco3)c2Cl)c1O` [Example 156]: the logP entry was “(I-2) logP = 1.54^a)”.

For `Cn1ncc(C(=O)c2ccc(Cl)c(NC(=O)N3CCCCC3)c2Cl)c1O` [Example 107], the logP result is “(I-2) logP = 1.50^a)”.

In the case of `CCn1ncc(C(=O)c2ccc(Cl)c(NC(=O)Nc3nnc(C)o3)c2Cl)c1O` [Example 174], the logP result is on record as “(I-2) logP = 1.20^a)”.

Regarding `CCn1ccsc1=NC(=O)Nc1c(Cl)ccc(C(=O)c2cnn(C)c2O)c1Cl` [Example 178], the logP result is “(I-2) logP = 1.43^a)”.

As to `Cn1ncc(C(=O)c2ccc(Cl)c(NC(=O)N=c3sccn3C)c2Cl)c1O` [Example 177], the logP entry is recorded as “(I-2) logP = 1.13^a)”.

On to `Cn1ncc(C(=O)c2ccc(Cl)c(NC(=O)NN3CCCCC3)c2Cl)c1O` [Example 173], for which the logP result is “(I-2) logP = 1.70^a)”.

With `CCn1ncc(C(=O)c2ccc(C(F)(F)F)cc2NC(=O)N(C)OC)c1O` [Example 7], the logP result is “(I-1) logP = 2.93^a)”.

Turning to `CN1CCN(C(=O)Nc2cc(C(F)(F)F)ccc2C(=O)c2cnn(C)c2O)C1=O` [Example 17], the logP result is given as “(I-1) logP = 2.12^a)”.

For the molecule `CCONC(=O)Nc1c(Cl)ccc(C(=O)c2cnn(C)c2O)c1Cl` [Example 127], the logP entry was “(I-2) logP = 1.07^a)”.

Take `CCn1ncc(C(=O)c2ccc(Cl)c(NC(=O)Nc3nnc(C(F)(F)F)s3)c2Cl)c1O` [Example 175]: the logP result was “(I-2) logP = 2.24^a)”.

Take `CCn1ncc(C(=O)c2ccc(Cl)c(NC(=O)NN3CCCC3)c2Cl)c1O` [Example 100]: the logP entry is on record as “(I-2) logP = 1.42^a)”.

For the molecule `CCn1ncc(C(=O)c2ccc(Cl)c(NC(=O)N3CCCCO3)c2Cl)c1O` [Example 181], the logP entry is on record as “(I-2) logP = 1.63^a)”.

As to `CCn1ncc(C(=O)c2ccc(Cl)c(NC(=O)N3CCCC3)c2Cl)c1O` [Example 110], the logP result is on record as “(I-2) logP = 1.52^a)”.

Turning to `CCN1CCCN(C(=O)Nc2c(Cl)ccc(C(=O)c3cnn(C)c3O)c2Cl)C1=O` [Example 19], the logP result is reported as “(I-2) logP = 1.83^a)”.

For `CCn1ncc(C(=O)c2ccc(Cl)c(N(C)C(=O)N3CCN(C)C3=O)c2Cl)c1O` [Example 99], the logP entry is listed as “(I-2) logP = 1.40^a)”.

For `CCn1nc(C)c(C(=O)c2ccc(Cl)c(NC(=O)N3CCCCO3)c2Cl)c1O` [Example 183], the logP entry is recorded as “(I-2) logP = 1.53^a)”.

Regarding `CN1CCCN(C(=O)Nc2c(Cl)ccc(C(=O)c3cnn(C)c3O)c2Cl)C1=O` [Example 9], the logP result was “(I-2) logP = 1.55^a)”.

In the case of `Cn1ncc(C(=O)c2ccc(Cl)c(NC(=O)Nc3nnc(C(F)(F)F)s3)c2Cl)c1O` [Example 47], the logP entry was “(I-2) logP = 1.99^a)”.

For the molecule `CONC(=O)Nc1c(Cl)ccc(C(=O)c2cnn(C)c2O)c1Cl` [Example 109], the logP result was “(I-2) logP = 0.72^a)”.

`Cn1ncc(C(=O)c2ccc(Cl)c(NC(=O)C3=NOCC3)c2Cl)c1O` [Example 149]: the logP entry is reported as “(I-2) logP = 1.18^a)”.

Regarding `CCn1ncc(C(=O)c2ccc(Cl)c(NC(=O)NN3CCCCC3)c2Cl)c1O` [Example 172], the logP result was “(I-2) logP = 1.96^a)”.

As to `CC(C)N1CCCN(C(=O)Nc2c(Cl)ccc(C(=O)c3cnn(C)c3O)c2Cl)C1=O` [Example 33], the logP result is reported as “(I-2) logP = 2.11^a)”.

Staying with this data set, now noted: reversed-phase C18 HPLC column; pH=2.3.
In turn, `CN1CCN(C(=O)Nc2c(Cl)ccc(C(=O)O)c2Cl)C1=O` [III-1, 2,4-dichloro-3-[[(3-methyl-2-oxo-1-imidazolidinyl)-carbonyl]-amino]-benzoic acid] came in with a chromatographic logP of 1.35.

For `COC(=O)c1ccc(Cl)c(NC(=O)N2CCN(C)C2=O)c1Cl` [IIIa-1, methyl 2,4-dichloro-3-[[(3-methyl-2-oxo-1-imidazolidinyl)-carbonyl]-amino]-benzoate], the chromatographic logP was 1.94.

The test system of the next data set is weeds. The data set is described as follows: Pre-emergence test (Example A), weeds. The format is in vivo. Conditions: soil sprayed 24 hours after sowing; rated after three weeks as % damage vs untreated control. The protocol:
To produce a suitable preparation of active compound, 1 part by weight of active compound is mixed with the stated amount of solvent, the stated amount of emulsifier is added and the concentrate is diluted with water to the desired concentration.
Seeds of the test plants are sown in normal soil. After 24 hours, the soil is sprayed with the preparation of active compound such that the particular amount of active compound desired is applied per unit area. The concentration of active compound in the spray liquor is chosen such that the particular amount of active compound desired is applied in 1000 liters of water per hectare.
After three weeks, the degree of damage to the plants is rated in % damage in comparison to the development of the untreated control. The figures denote: • 0%=no effect (like untreated control) • 100%=total destruction
In the case of `CN1CCN(C(=O)Nc2c(Cl)ccc(C(=O)c3cnn(C)c3O)c2Cl)C1=O` [Example 4], the “activity against weeds, pre-emergence” value is listed as “strong activity”.
